Source: ChEMBL document CHEMBL1137659, “Molecular epidemiology of clinical isolates of carbapenem-resistant Acinetobacter spp. from Chinese hospitals” (2007)
In brackets after ≈: the same amount, converted by molar mass.

Assays:
Acinetobacter baumannii [1] = test: Antimicrobial activity against imipenem and meropenem-resistant Acinetobacter baumannii isolate BJ55 by CLSI agar dilution method; format: functional
[2] = tested on: Acinetobacter phenon 6/ct 13TU; test: Antimicrobial activity against imipenem and meropenem-resistant Acinetobacter phenon 6/ct 13TU isolate FZ4A18 by CLSI agar dilution method
Acinetobacter baumannii [3] = test: Antimicrobial activity against imipenem and meropenem-resistant Acinetobacter baumannii isolate ZJ58 by CLSI agar dilution method; format: functional
Acinetobacter baumannii [4] = test: Antimicrobial activity against imipenem and meropenem-resistant Acinetobacter baumannii isolate PU4A1 by CLSI agar dilution method; format: functional
Acinetobacter baumannii [5] = test: Antimicrobial activity against imipenem and meropenem-resistant Acinetobacter baumannii isolate ZJ32 by CLSI agar dilution method; format: functional
Acinetobacter baumannii [6] = test: Antimicrobial activity against imipenem and meropenem-resistant Acinetobacter baumannii isolate BJ52 by CLSI agar dilution method; format: functional
Acinetobacter baumannii [7] = test: Antimicrobial activity against imipenem and meropenem-resistant Acinetobacter baumannii isolate ZJ36 by CLSI agar dilution method; format: functional
[8] = tested on: Acinetobacter genospecies 10/11; test: Antimicrobial activity against imipenem and meropenem-resistant Acinetobacter genospecies 10/11 isolate ZS5 by CLSI agar dilution method
Acinetobacter baumannii [9] = test: Antimicrobial activity against imipenem and meropenem-resistant Acinetobacter baumannii isolate CY7 by CLSI agar dilution method; format: functional
[10] = tested on: Acinetobacter genospecies 10/11; test: Antimicrobial activity against imipenem and meropenem-resistant Acinetobacter genospecies 10/11 isolate ZS15 by CLSI agar dilution method
[11] = tested on: Acinetobacter genospecies 3 (Acinetobacter genomosp. 3); test: Antimicrobial activity against imipenem and meropenem-resistant Acinetobacter genospecies 3 isolate PU78 by CLSI agar dilution method; details: Acinetobacter genospecies 3, isolate PU78
[12] = tested on: Acinetobacter genospecies 13TU; test: Antimicrobial activity against imipenem and meropenem-resistant Acinetobacter genospecies 13TU isolate CY6 by CLSI agar dilution method
Acinetobacter baumannii [13] = test: Antimicrobial activity against imipenem and meropenem-resistant Acinetobacter baumannii isolate PU4A22 by CLSI agar dilution method; format: functional
Acinetobacter baumannii [14] = test: Antimicrobial activity against imipenem and meropenem-resistant Acinetobacter baumannii isolate PU73 by CLSI agar dilution method; format: functional
Acinetobacter baumannii [15] = test: Antimicrobial activity against imipenem and meropenem-resistant Acinetobacter baumannii isolate PUA1 by CLSI agar dilution method; format: functional
[16] = tested on: Acinetobacter phenon 6/ct 13TU (Acinetobacter sp.); test: Antimicrobial activity against imipenem and meropenem-resistant Acinetobacter phenon 6/ct 13TU isolate PU86 by CLSI agar dilution method
Acinetobacter baumannii [17] = test: Antimicrobial activity against imipenem and meropenem-resistant Acinetobacter baumannii isolate DL34 by CLSI agar dilution method; format: functional
Acinetobacter baumannii [18] = test: Antimicrobial activity against imipenem and meropenem-resistant Acinetobacter baumannii isolate BJ3-23 by CLSI agar dilution method; format: functional
Acinetobacter baumannii [19] = test: Antimicrobial activity against imipenem and meropenem-resistant Acinetobacter baumannii isolate NJ59 by CLSI agar dilution method; format: functional
Acinetobacter baumannii [20] = test: Antimicrobial activity against imipenem and meropenem-resistant Acinetobacter baumannii isolate FZ84 by CLSI agar dilution method; format: functional
Acinetobacter baumannii [21] = test: Antimicrobial activity against imipenem and meropenem-resistant Acinetobacter baumannii isolate BJ3-9 by CLSI agar dilution method; format: functional
Acinetobacter phenon 5 = test: Antimicrobial activity against imipenem and meropenem-resistant Acinetobacter phenon 5 isolate PUA6 by CLSI agar dilution method
Acinetobacter baumannii [22] = test: Antimicrobial activity against imipenem and meropenem-resistant Acinetobacter baumannii isolate ZJ49 by CLSI agar dilution method; format: functional
Acinetobacter baumannii [23] = test: Antimicrobial activity against imipenem and meropenem-resistant Acinetobacter baumannii isolate FW-F1 by CLSI agar dilution method; format: functional
[24] = tested on: Acinetobacter genospecies 3; test: Antimicrobial activity against imipenem and meropenem-resistant Acinetobacter genospecies 3 isolate PUA7 by CLSI agar dilution method
Acinetobacter baumannii [25] = test: Antimicrobial activity against imipenem and meropenem-resistant Acinetobacter baumannii isolate JN45 by CLSI agar dilution method; format: functional
[26] = tested on: Acinetobacter genospecies 3; test: Antimicrobial activity against imipenem and meropenem-resistant Acinetobacter genospecies 3 isolate PU78 by CLSI agar dilution method
[27] = tested on: Acinetobacter phenon 6/ct 13TU; test: Antimicrobial activity against imipenem and meropenem-resistant Acinetobacter phenon 6/ct 13TU isolate PU86 by CLSI agar dilution method

Compound	MIC (Acinetobacter baumannii [1])	MIC (Acinetobacter baumannii [3])	MIC (Acinetobacter baumannii [4])	MIC (Acinetobacter baumannii [5])	MIC (Acinetobacter baumannii [6])	MIC (Acinetobacter baumannii [7])	MIC [8]	MIC (Acinetobacter baumannii [9])	MIC [12]	MIC (Acinetobacter baumannii [13])	MIC (Acinetobacter baumannii [14])	MIC (Acinetobacter baumannii [15])	MIC (Acinetobacter baumannii [17])	MIC (Acinetobacter baumannii [18])	MIC (Acinetobacter baumannii [19])	MIC (Acinetobacter baumannii [20])	MIC (Acinetobacter baumannii [21])	MIC (Acinetobacter phenon 5)	MIC (Acinetobacter baumannii [22])	MIC (Acinetobacter baumannii [23])	also measured
C[C@@H](O)[C@H]1C(=O)N2C(C(=O)O)=C(SCCNC=N)C[C@H]12 [IMIPENEM ANHYDROUS]	32 µg/mL (≈ 107 µM)	16 µg/mL (≈ 53.4 µM)	64 µg/mL (≈ 214 µM)	64 µg/mL (≈ 214 µM)	32 µg/mL (≈ 107 µM)	16 µg/mL (≈ 53.4 µM)	64 µg/mL (≈ 214 µM)	64 µg/mL (≈ 214 µM)	32 µg/mL (≈ 107 µM)	64 µg/mL (≈ 214 µM)	64 µg/mL (≈ 214 µM)	64 µg/mL (≈ 214 µM)	32 µg/mL (≈ 107 µM)	64 µg/mL (≈ 214 µM)	16 µg/mL (≈ 53.4 µM)	16 µg/mL (≈ 53.4 µM)	64 µg/mL (≈ 214 µM)	64 µg/mL (≈ 214 µM)	32 µg/mL (≈ 107 µM)	64 µg/mL (≈ 214 µM)	MIC [2]: 16 µg/mL (≈ 53.4 µM); MIC [10]: 64 µg/mL (≈ 214 µM); MIC [11]: 16 µg/mL (≈ 53.4 µM); MIC [16]: 16 µg/mL (≈ 53.4 µM); MIC [24]: 16 µg/mL (≈ 53.4 µM); MIC (Acinetobacter baumannii [25]): 32 µg/mL (≈ 107 µM)
GENTAMICIN	> 256 µg/mL	> 256 µg/mL	> 256 µg/mL	> 256 µg/mL	4 µg/mL	1 µg/mL	> 256 µg/mL	> 256 µg/mL	> 256 µg/mL	> 256 µg/mL	> 256 µg/mL	> 256 µg/mL	> 256 µg/mL	> 256 µg/mL	> 256 µg/mL	> 256 µg/mL	> 256 µg/mL	> 256 µg/mL	> 256 µg/mL	> 256 µg/mL	MIC [26]: 1 µg/mL; MIC [27]: > 256 µg/mL; MIC [24]: > 256 µg/mL; MIC (Acinetobacter baumannii [25]): > 256 µg/mL
C[C@@H](O)[C@H]1C(=O)N2C(C(=O)O)=C(S[C@@H]3CN[C@H](C(=O)N(C)C)C3)[C@H](C)[C@H]12 [MEROPENEM]	32 µg/mL (≈ 83.4 µM)	32 µg/mL (≈ 83.4 µM)	64 µg/mL (≈ 167 µM)	32 µg/mL (≈ 83.4 µM)	32 µg/mL (≈ 83.4 µM)	16 µg/mL (≈ 41.7 µM)	128 µg/mL (≈ 334 µM)	64 µg/mL (≈ 167 µM)	32 µg/mL (≈ 83.4 µM)	128 µg/mL (≈ 334 µM)	64 µg/mL (≈ 167 µM)	64 µg/mL (≈ 167 µM)	32 µg/mL (≈ 83.4 µM)	64 µg/mL (≈ 167 µM)	16 µg/mL (≈ 41.7 µM)	16 µg/mL (≈ 41.7 µM)	32 µg/mL (≈ 83.4 µM)	64 µg/mL (≈ 167 µM)	32 µg/mL (≈ 83.4 µM)	64 µg/mL (≈ 167 µM)	MIC [2]: 16 µg/mL (≈ 41.7 µM); MIC [10]: 64 µg/mL (≈ 167 µM); MIC [11]: 32 µg/mL (≈ 83.4 µM); MIC [16]: 32 µg/mL (≈ 83.4 µM); MIC [24]: 32 µg/mL (≈ 83.4 µM); MIC (Acinetobacter baumannii [25]): 16 µg/mL (≈ 41.7 µM)
